Data as given in the supplement of paper PMC10307832.

Legend:
Assay in all cases: relative viability (nuclei count vs DMSO), 5 days (fraction); higher = more cells survive
JQ1 = compound: Cc1sc2c(c1C)C(c1ccc(Cl)cc1)=N[C@@H](CC(=O)OC(C)(C)C)c1nnc(C)n1-2 [JQ1]
Outline: (§1)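 Five library-drug doses, separated by factors of √10, were pinned into 1536-well plates holding lung cancer cell lines after an overnight stay at 37 °C. Cells were fixed, permeabilised and Hoechst-stained in one step after 5 days without medium change, then imaged at 4×. Viability compares treated-well with vehicle-well nuclei, counted in MetaXpress, as a median across plates. Passing plates had control CV below 25% and at least one doubling.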

Pimozide = compound: O=c1[nH]c2ccccc2n1C1CCN(CCCC(c2ccc(F)cc2)c2ccc(F)cc2)CC1 [Pimozide]
Outline: as §1

CPI-613 = compound: O=C(O)CCCCC(CCSCc1ccccc1)SCc1ccccc1 [CPI-613]
Outline: as §1

Docetaxel = compound: CC(=O)O[C@@]12CO[C@@H]1C[C@H](O)[C@@]1(C)C(=O)[C@H](O)C3=C(C)[C@@H](OC(=O)[C@H](O)[C@@H](NC(=O)OC(C)(C)C)c4ccccc4)C[C@@](O)([C@@H](OC(=O)c4ccccc4)[C@H]21)C3(C)C [Docetaxel]
Outline: as §1

Cytarabine = compound: Nc1ccn([C@@H]2O[C@H](CO)[C@@H](O)[C@@H]2O)c(=O)n1 [Cytarabine]
Outline: as §1

Tivozanib = compound: COc1cc2nccc(Oc3ccc(NC(=O)Nc4cc(C)on4)c(Cl)c3)c2cc1OC [Tivozanib]
Outline: as §1

[1] = compound: Cc1cnc(-c2cnc(NCCNc3ccc(C#N)cn3)nc2-c2ccc(Cl)cc2Cl)[nH]1
Outline: as §1

| Cell Line | relative viability (JQ1; 0.04 µM) | relative viability (JQ1; 0.1265 µM) | relative viability (JQ1; 0.4 µM) | relative viability (JQ1; 1.265 µM) | relative viability (JQ1; 4 µM) | relative viability (Pimozide; 0.08 µM) | relative viability (Pimozide; 0.253 µM) | relative viability (Pimozide; 0.8 µM) | relative viability (Pimozide; 2.53 µM) | relative viability (Pimozide; 8 µM) | relative viability (CPI-613; 5 µM) | relative viability (CPI-613; 15.81 µM) | relative viability (CPI-613; 50 µM) | relative viability (CPI-613; 158.11 µM) | relative viability (CPI-613; 500 µM) | relative viability (Docetaxel; 0.0002 µM) | relative viability (Docetaxel; 0.000632 µM) | relative viability (Docetaxel; 0.002 µM) | relative viability (Docetaxel; 0.006325 µM) | relative viability (Docetaxel; 0.02 µM) | relative viability (Cytarabine; 0.005 µM) | relative viability (Cytarabine; 0.01581 µM) | relative viability (Cytarabine; 0.05 µM) | relative viability (Cytarabine; 0.1581 µM) | relative viability (Cytarabine; 0.5 µM) | relative viability (Tivozanib; 0.005 µM) | relative viability (Tivozanib; 0.01581 µM) | relative viability (Tivozanib; 0.05 µM) | relative viability (Tivozanib; 0.1581 µM) | relative viability (Tivozanib; 0.5 µM) | relative viability ([1]; 0.08 µM) | relative viability ([1]; 0.253 µM) | relative viability ([1]; 0.8 µM) | relative viability ([1]; 2.53 µM) |
| --- | --- | --- | --- | --- | --- | --- | --- | --- | --- | --- | --- | --- | --- | --- | --- | --- | --- | --- | --- | --- | --- | --- | --- | --- | --- | --- | --- | --- | --- | --- | --- | --- | --- | --- |
| NCI-H1703 | 0.865 | 0.675 | 0.639 | 0.431 | 0.405 | 0.899 | 0.916 | 0.913 | 0.95 | 0.892 | 1.04 | 0.836 | 0.749 | 0.585 | 0.406 | 0.891 | 0.869 | 0.274 | 0.163 | 0.127 | 0.729 | 0.393 | 0.288 | 0.16 | 0.153 | 0.36 | 0.271 | 0.311 | 0.211 | 0.215 | 1.14 | 0.901 | 1.01 | 1.28 |
| NCI-H1734 | 0.934 | 0.904 | 0.999 | 0.664 | 0.578 | 0.981 | 0.901 | 0.81 | 0.915 | 0.974 | 0.861 | 0.841 | 0.884 | 0.48 | 0.111 | 0.857 | 0.602 | 0.359 | 0.332 | 0.235 | 0.578 | 0.342 | 0.256 | 0.156 | 0.136 | 0.963 | 1.03 | 0.983 | 0.721 | 0.885 | 1.08 | 0.891 | 0.974 | 0.85 |
| NCI-H1755 | 0.984 | 0.819 | 1.04 | 0.966 | 0.836 | 0.916 | 0.967 | 0.946 | 0.929 | 0.892 | 0.937 | 0.958 | 0.942 | 0.973 | 0.49 | 0.984 | 0.941 | 0.724 | 0.459 | 0.411 | 1.04 | 0.97 | 0.864 | 0.548 | 0.404 | 0.991 | 0.961 | 1.01 | 1.02 | 0.917 | 1.04 | 0.831 | 1.03 | 1.08 |
| NCI-H1792 | 0.801 | 0.605 | 0.844 | 0.408 | 0.156 | 0.936 | 0.843 | 0.62 | 0.81 | 0.763 | 0.896 | 0.793 | 0.956 | 0.651 | 0.511 | 0.715 | 0.677 | 0.291 | 0.213 | 0.131 | – | 0.908 | 0.45 | 0.411 | 0.231 | 0.893 | 0.912 | 1.11 | 0.51 | 0.762 | 1.02 | 0.793 | 0.923 | 0.951 |
| NCI-H1793 | 0.802 | 0.785 | 0.674 | 0.778 | 0.78 | 0.746 | 0.846 | 0.675 | 0.947 | 0.711 | 0.854 | 0.705 | 0.994 | 0.494 | 0.0301 | 1.01 | 0.852 | 0.351 | 0.285 | 0.186 | 0.958 | 0.884 | 0.818 | 0.691 | 0.521 | 0.84 | 0.787 | 0.952 | – | 0.977 | 1.07 | 0.879 | 0.876 | 1.02 |
| NCI-H1915 | 0.975 | 0.702 | 0.904 | 0.427 | 0.269 | 0.972 | 0.919 | 0.631 | 0.928 | 0.925 | 1.01 | 0.996 | 0.97 | 0.949 | 0.0528 | 0.986 | 0.943 | 0.326 | 0.262 | 0.16 | 0.916 | 0.916 | 0.854 | 0.609 | 0.503 | 0.959 | 0.971 | 0.984 | 0.896 | 0.75 | 1.02 | – | 0.973 | 0.919 |
| NCI-H1944 | 0.951 | 0.709 | 0.612 | 0.53 | 0.485 | 0.925 | 0.877 | 0.698 | 0.795 | 0.944 | 0.918 | 0.922 | 0.947 | 0.712 | 0.51 | 0.948 | 1 | 0.822 | 0.336 | 0.173 | 0.654 | 0.481 | 0.381 | 0.23 | 0.159 | 0.925 | 0.998 | 0.949 | 0.849 | 0.978 | 1.09 | – | 1.01 | 0.916 |
| NCI-H1975 | 0.953 | 0.643 | 0.782 | 0.597 | 0.53 | 0.916 | 0.941 | 0.92 | 0.966 | 0.775 | 0.919 | 0.901 | 0.984 | 0.87 | 0.075 | 0.916 | 0.702 | 0.344 | 0.213 | 0.168 | 1.07 | 1.08 | 0.987 | 0.546 | 0.35 | 0.842 | 0.922 | 0.991 | 0.852 | 0.786 | 0.859 | 0.888 | 0.813 | 0.647 |
